What all share (type): in vivo
The test system of assay [1] is exon 9 col6a1 morphant zebrafish. Nature of the assay: Touch-evoked escape response of exon 9 col6a1 morphant zebrafish embryos. The settings on record: 5 and 10 μM in fish water from 21 hpf; read at 48 hpf. How it is done: (§1) Zebrafish and embryo maintenance. Adult zebrafish were maintained in the facility of the University of Padova containing aerated, 28.5° C.-conditioned saline water according to standard protocols. Fish were kept under a 14 h light-10 h dark cycle. For mating, males and females were separated in the late afternoon, and were freed to start courtship the next morning, which ended with egg deposition and fecundation. Eggs were collected, washed with fish water (0.5 mM NaH2PO4, 0.5 mM NaHPO4, 0.2 mg/L methylene blue, 3 mg/L instant ocean) and embryos were maintained at 28.5° C. All protocols and manipulations with zebrafish were performed as described in C. B. Kimmel, W. W. Ballard, S. R. Kimmel, B. Ullmann, T. F. Schilling, Dev. Dyn. […]
(§2) Motor activity. Spontaneous coiling rates were recorded by observing the number of coiling events in 15 s for single embryos at 24 hpf using light microscopy. Touch-evoked escape response was measured at 48 hpf by observing the ability of larvae to escape after touching the body with a little tip. […]
(§3) Statistical analysis. Differences between control and compound treated samples were determined by one-way ANOVA test with Bonferroni correction using GraphPad Prism (version 5.1 for Windows). […] For FIG. 3, the total number of embryos used is n=35 for each condition; *p<0.05, ***p<0.001, as determined by χ^2 test and oneway ANOVA with Bonferroni correction.

Assay [2] has the same test system. Nature of the assay: Muscle birefringence assay in exon 9 col6a1 morphant zebrafish embryos. How it is done:
as §1, with “C.” for “C. B. Kimmel, W. W. Ballard, S. R. Kimmel, B. Ullmann, T. F. Schilling, Dev. Dyn.”
Birefringence assay. Muscle birefringence was measured at 48 hpf on tricaine-anesthetized embryos by taking advantage of muscle fiber anisotropy. It was measured using two polarizing filters on a Leica M165FC stereomicroscope. Briefly, anesthetized embryos were placed on a glass slide, and muscle light refraction was analyzed by using two polarizing filters. […] Integrated area of birefringence was calculated by using ImageJ software, as disclosed in J. Berger, T. Sztal, P. D. Currie, Biochem. Biophys. […]
Statistical analysis. Differences between control and compound treated samples were determined by one-way ANOVA test with Bonferroni correction using GraphPad Prism (version 5.1 for Windows). […]

For assay [3] the test system is unchanged. The assay can be described thus: Spontaneous coiling of exon 9 col6a1 morphant zebrafish embryos. The settings on record: 5 and 10 μM in fish water from 21 hpf; read at 24 hpf. Here is the method:
as §1, §2, §3

Take `Cc1c(Cl)cccc1NC(=O)c1cc(-c2ccc(F)c(O)c2)on1` [compound 60, N-(3-Chloro-2-methylphenyl)-5-(4-fluoro-3-hydroxyphenyl)isoxazole-3-carboxamide]: the “motor function: touch-evoked response (FIG. 2)” value in assay [1] is given as “dramatic improvement in motor function”. Further, the “muscle defects by muscle birefringence (FIG. 3)” value in assay [2] (5 and 10 μM in fish water from 21 hpf, read at 48 hpf) is “largely ameliorated”. In addition, in assay [2] (48 hpf, ANOVA, p<0.05), the total birefringence scores entry is reported as “significant recovery of muscle defects”. The “motor function: spontaneous coiling events (FIG. 1)” value in assay [3] is “dramatic improvement in motor function”.

Source of the values: patent US20240067600A1, “SMALL MOLECULE INHIBITORS OF THE MITOCHONDRIAL PERMEABILITY TRANSITION PORE (mtPTP)” (UNIVERSITY OF KANSAS, priority 2014, published 2024).
